According to US20260209274A1, “COMPOSITION FOR SKIN REPIGMENTATION” (BELLA AURORA LABS, S.A., priority 2022, published 2026):
Non-standard residues stand in square brackets, D forms with d. No end group written: not given here. Nle = CCCC[C@H](N)C(=O)O

Columns and labels:
[1] = tested on: reconstructed human pigmented epidermis (RHPE); assay: In vitro repigmentation assay in reconstructed human pigmented epidermis (RHPE), without irradiation; format: cell-based; details: A 3.0 ppm
Description: (§1) For assessing the repigmentation effect, a reconstructed epidermis model was used, namely, based on adding melanocytes and keratinocytes on a polycarbonate filter (SkinEthic® RHPE, available from the company Episkin).
(§2) Sample tissues were treated with the test products for 6 days (from day1 to day6). After each dosing, the samples were incubated at 37° C., and melanin extraction was performed after 6 days of treatment (at day7). Untreated samples were also included in the assay as controls. An evaluation of cell viability was also performed.
(§3) After treatment, melanin extraction was performed by plunging each sample filter into 800 μl of Solvable® (Perkin Elmer) and heating at 63° C. overnight. The optical density of the supernatants was measured on 300 μl extract at 405 nm using synthetic melanin as reference. 6 samples were used for each treatment and the mean value was calculated.
(§4) For each of the treatments the increase in the amount of melanin generated versus the control (0) was calculated. For analysing a possible synergistic effect, the experimental increase in melanin in the combined treatment (A+B) was compared to the theoretical increase to be expected if a simple additive effect were obtained.
Another in vitro repigmentation assay was performed using the same reconstructed epidermis model and the same procedure as disclosed in Example 1. In this case, the assay was performed without irradiation.
In this example, the same reconstructed epidermis model was used, namely, based on adding melanocytes and keratinocytes on a polycarbonate filter (SkinEthic® RHPE, available from the company Episkin), using the same protocol disclosed in Example 1.

[2] = tested on: reconstructed human pigmented epidermis (RHPE); assay: In vitro repigmentation assay in reconstructed human pigmented epidermis (RHPE), samples irradiated; format: cell-based; details: Example 1; irradiated with 150 J/m^2 at 300 W/m^2 on day2, day3, day4; A 3.0 ppm, B 0.4 ppm, A + B 1.5 ppm + 0.2 ppm (7.5:1)
Description: as §1, §2, §3
Another analogous assay, with the same treatments, was performed but simultaneously irradiating the samples. In this second assay, the samples were irradiated with 150 J/m^2 at 300 W/m^2 three times on consecutive days (on day2, day3, and day4 of the assay).
as §4

[3] = Example 3, C 0.1 ppm, A + C 1.5 ppm + 0.05 ppm (30:1)
[4] = Example 3, C 0.1 ppm, A + C 1.5 ppm + 0.05 ppm (30:1) in culture medium
[5] = Example 4, D 1.2 ppm, A + D 1.5 ppm + 0.6 ppm (2.5:1)
[6] = Example 4, D 1.2 ppm, A + D 1.5 ppm + 0.6 ppm (2.5:1) in culture medium
[7] = Example 1, without irradiation, 6 days of treatment, extraction at day7, B 0.4 ppm, A + B 1.5 ppm + 0.2 ppm (7.5:1) in culture medium
[8] = Example 1, without irradiation, 6 days of treatment, B 0.4 ppm, A + B 1.5 ppm + 0.2 ppm (7.5:1)

Substance | Melanin increase vs. control [1, 3] | Melanin [1, 4] | Melanin increase vs. control [1, 5] | Melanin [1, 6] | Melanin [1, 7] | Melanin increase vs. control [1, 8] | Melanin [2] | Melanin increase vs. control [2]
His-DPhe-Arg-Trp (H[dF]RW) [C] | 1.93 µg | 38.45 µg | – | – | – | – | – | –
palmitoyl-prolil-proline [D] | – | – | 0.48 µg | 32.49 µg | – | – | – | –
FHWRYPLPLPGQ (MIA inhibitor) | 0.11 µg | 36.63 µg | 1.33 µg | 33.34 µg | 34.39 µg | 1.29 µg | 36.07 µg | 1.35 µg
Nle-Ala-His-DPhe-Arg-Trp (Ac-[Nle]AH[dF]RW) [B] | – | – | – | – | 37.31 µg | 4.21 µg | 38.07 µg | 3.35 µg
